Active and inactive are the calls of the source.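 How the source made its calls: active means IC50 of 10 µM or lower; inactive means IC50 above 10 µM.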
Biological target: Nuclear receptor coactivator 2 (Homo sapiens) (UniProt Q15596)
Experiment: inhibition of GAL4-SRC2 reporter transcription – cell-based, HEK293, GAL4-SRC2 luciferase, powder samples, selectivity assay for SRC3 inhibitor project, late-stage follow-up (AID 651782)
Conditions: luminescence

Chain of Nuclear receptor coactivator 2 (Homo sapiens) (Q15596 whole entry, looked up, the tested form may be a part): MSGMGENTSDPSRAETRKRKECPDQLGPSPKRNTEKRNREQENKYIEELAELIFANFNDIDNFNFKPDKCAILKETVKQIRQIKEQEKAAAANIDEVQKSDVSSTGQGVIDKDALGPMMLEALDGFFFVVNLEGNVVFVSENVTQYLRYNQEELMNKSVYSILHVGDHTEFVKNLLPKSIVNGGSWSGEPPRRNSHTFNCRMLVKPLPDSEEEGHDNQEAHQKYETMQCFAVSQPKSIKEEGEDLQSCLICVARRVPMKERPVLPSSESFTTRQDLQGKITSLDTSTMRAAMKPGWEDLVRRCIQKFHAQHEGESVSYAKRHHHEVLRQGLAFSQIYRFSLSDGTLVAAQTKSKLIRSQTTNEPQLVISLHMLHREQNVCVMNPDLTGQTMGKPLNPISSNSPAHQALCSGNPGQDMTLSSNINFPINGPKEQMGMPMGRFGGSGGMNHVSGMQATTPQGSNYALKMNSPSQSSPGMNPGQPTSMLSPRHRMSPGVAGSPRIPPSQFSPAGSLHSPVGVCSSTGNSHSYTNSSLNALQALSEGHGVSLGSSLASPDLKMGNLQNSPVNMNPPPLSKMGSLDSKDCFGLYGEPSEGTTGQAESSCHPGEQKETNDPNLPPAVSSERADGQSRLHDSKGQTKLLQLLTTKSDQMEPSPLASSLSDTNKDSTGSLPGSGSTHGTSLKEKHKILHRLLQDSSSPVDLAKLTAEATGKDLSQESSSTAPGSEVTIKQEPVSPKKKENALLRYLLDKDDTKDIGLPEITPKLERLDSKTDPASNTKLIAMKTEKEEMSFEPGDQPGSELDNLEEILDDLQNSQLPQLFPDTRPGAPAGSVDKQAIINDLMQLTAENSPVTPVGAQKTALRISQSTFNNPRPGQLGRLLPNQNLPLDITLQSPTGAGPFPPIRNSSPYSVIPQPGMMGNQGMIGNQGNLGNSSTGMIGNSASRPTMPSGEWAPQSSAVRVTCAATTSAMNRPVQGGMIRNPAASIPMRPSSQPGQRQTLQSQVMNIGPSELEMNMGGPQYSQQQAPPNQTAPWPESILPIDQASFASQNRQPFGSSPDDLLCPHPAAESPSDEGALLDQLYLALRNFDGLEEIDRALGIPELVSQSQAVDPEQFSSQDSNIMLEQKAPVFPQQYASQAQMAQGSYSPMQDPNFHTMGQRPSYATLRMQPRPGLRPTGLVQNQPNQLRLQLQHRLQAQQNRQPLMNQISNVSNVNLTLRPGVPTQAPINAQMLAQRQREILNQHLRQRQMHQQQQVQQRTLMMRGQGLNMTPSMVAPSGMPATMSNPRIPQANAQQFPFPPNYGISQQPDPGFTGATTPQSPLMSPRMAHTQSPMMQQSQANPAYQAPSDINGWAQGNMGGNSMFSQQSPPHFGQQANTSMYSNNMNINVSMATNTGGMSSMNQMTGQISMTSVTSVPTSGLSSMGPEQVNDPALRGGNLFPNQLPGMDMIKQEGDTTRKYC

| IC50 | Compound |
| --- | --- |
| 4.68 µM | OCCN1CCN(C(=S)c2ccc(-c3ccccc3)cc2)CC1 |
| 5.4 µM | O=C(Nc1ccccc1Oc1ccccc1)c1cc([N+](=O)[O-])ccc1Cl |
| inactive | Cc1ccc(OCC(=O)c2cc(C)n(-c3ccccc3)c2C)c([N+](=O)[O-])n1 |
| > 35.9 µM (inactive) | O=C(COC(=O)c1ccc[nH]c1=O)Nc1ccc(N2CCCCC2)cc1 |
| inactive | CN1C(=O)C2(C(C#N)=C(N)N(c3cc(Cl)cc(Cl)c3)C3=C2C(=O)CC(C)(C)C3)c2ccccc21 (stereo not drawn) |
| inactive | CCCNC(=O)c1nnsc1S(=O)(=O)c1ccc(Cl)cc1 |
| > 35.9 µM (inactive) | CN1C(=O)C2(C(C#N)=C(N)N(c3cc(Cl)cc(Cl)c3)C3=C2C(=O)CCC3)c2ccccc21 (stereo not drawn) |
| > 35.9 µM (inactive) | CC(C)(C)c1ccc(-c2noc(CCC(=O)Nc3cccnc3)n2)cc1 |
